Values after ≈ are worked out from the molar mass of the structure shown.
Legend:
Type in all cases: functional
[1] = tested on: Staphylococcus epidermidis; assay: Antibacterial activity against Staphylococcus epidermidis ATCC 51625 assessed as bacterial growth inhibition measured after 20 hrs by broth dilution method
Staphylococcus aureus [2] = assay: Antibacterial activity against methicillin-resistant Staphylococcus aureus ATCC 43300 assessed as bacterial growth inhibition measured after 20 hrs by broth dilution method
Enterococcus faecium [3] = assay: Ratio of MBC to MIC against vancomycin-resistant Enterococcus faecium clinical isolate 202308456
Staphylococcus aureus [4] = assay: Ratio of MBC to MIC against methicillin-resistant Staphylococcus aureus clinical isolate 202313160
Enterococcus faecium [5] = assay: Antibacterial activity against vancomycin-resistant Enterococcus faecium ATCC 700221 assessed as bacterial growth inhibition measured after 20 hrs by broth dilution method
Streptococcus pneumoniae [6] = assay: Antibacterial activity against penicillin-resistant Streptococcus pneumoniae ATCC 51916 assessed as bacterial growth inhibition measured after 20 hrs by broth dilution method
Staphylococcus aureus [7] = assay: Ratio of MBC to MIC against Staphylococcus aureus ATCC 43300
Staphylococcus aureus [8] = assay: Antibacterial activity against methicillin-resistant Staphylococcus aureus clinical isolate 202311772 assessed as bacterial growth inhibition measured after 20 hrs by broth dilution method
Staphylococcus aureus [9] = assay: Antibacterial activity against methicillin-resistant Staphylococcus aureus clinical isolate 202313160 assessed as bacterial growth inhibition measured after 20 hrs by broth dilution method
[10] = tested on: Staphylococcus epidermidis; assay: Antibacterial activity against methicillin-resistant Staphylococcus epidermidis clinical isolate 202409454 assessed as bacterial growth inhibition measured after 20 hrs by broth dilution method
Enterococcus faecium [11] = assay: Antibacterial activity against vancomycin-resistant Enterococcus faecium ATCC 51559 assessed as bacterial growth inhibition measured after 20 hrs by broth dilution method
[12] = tested on: Staphylococcus epidermidis; assay: Antibacterial activity against methicillin-resistant Staphylococcus epidermidis clinical isolate 202409139 assessed as bacterial growth inhibition measured after 20 hrs by broth dilution method
[13] = tested on: Staphylococcus epidermidis; assay: Ratio of MBC to MIC against Staphylococcus epidermidis ATCC 51625
Streptococcus pneumoniae [14] = assay: Ratio of MBC to MIC against penicillin-intermediate Streptococcus pneumoniae ATCC 49619
Staphylococcus aureus [15] = assay: Antibacterial activity against methicillin-resistant Staphylococcus aureus ATCC 33591 assessed as bacterial growth inhibition measured after 20 hrs by broth dilution method
[16] = tested on: Staphylococcus epidermidis; assay: Ratio of MBC to MIC against methicillin-resistant Staphylococcus epidermidis clinical isolate 202409454
Staphylococcus aureus [17] = assay: Antibacterial activity against methicillin-resistant Staphylococcus aureus clinical isolate 202405157 assessed as bacterial growth inhibition measured after 20 hrs by broth dilution method
Enterococcus faecium [18] = assay: Ratio of MBC to MIC against vancomycin-resistant Enterococcus faecium ATCC 51559
Enterococcus faecium [19] = assay: Ratio of MBC to MIC against vancomycin-resistant Enterococcus faecium ATCC 700221
Streptococcus pneumoniae [20] = assay: Antibacterial activity against penicillin-intermediate Streptococcus pneumoniae ATCC 49619 assessed as bacterial growth inhibition measured after 20 hrs by broth dilution method
Enterococcus faecium [21] = assay: Antibacterial activity against vancomycin-resistant Enterococcus faecium clinical isolate 202308456 assessed as bacterial growth inhibition measured after 20 hrs by broth dilution method
Streptococcus pneumoniae [22] = assay: Ratio of MBC to MIC against penicillin-resistant Streptococcus pneumoniae ATCC 51916
Staphylococcus aureus [23] = assay: Ratio of MBC to MIC against methicillin-resistant Staphylococcus aureus clinical isolate 202405157
Staphylococcus aureus [24] = assay: Ratio of MBC to MIC against methicillin-resistant Staphylococcus aureus clinical isolate 202311772
Staphylococcus aureus [25] = assay: Ratio of MBC to MIC against methicillin-resistant Staphylococcus aureus ATCC 33591

SMILES	MIC [1]	MIC (Staphylococcus aureus [2])	Ratio (Enterococcus faecium [3])	MIC (Enterococcus faecium [5])	MIC (Streptococcus pneumoniae [6])	Ratio (Staphylococcus aureus [7])	MIC (Staphylococcus aureus [8])	MIC (Staphylococcus aureus [9])	MIC [10]	MIC (Enterococcus faecium [11])	MIC [12]	Ratio [13]	Ratio (Streptococcus pneumoniae [14])	MIC (Staphylococcus aureus [15])	Ratio [16]	MIC (Staphylococcus aureus [17])	Ratio (Enterococcus faecium [18])	Ratio (Enterococcus faecium [19])	MIC (Streptococcus pneumoniae [20])	MIC (Enterococcus faecium [21])	also measured
C=C[C@]1(C)C[C@@H](OC(=O)CSc2cc(=O)oc3ccc([N+](=O)[O-])cc23)[C@]2(C)[C@H](C)CC[C@]3(CCC(=O)[C@H]32)[C@@H](C)[C@@H]1O	0.031 µg/mL (≈ 0.0531 µM)	0.063 µg/mL (≈ 0.108 µM)	1	0.031 µg/mL (≈ 0.0531 µM)	0.25 µg/mL (≈ 0.428 µM)	>4	0.031 µg/mL (≈ 0.0531 µM)	0.063 µg/mL (≈ 0.108 µM)	0.125 µg/mL (≈ 0.214 µM)	0.063 µg/mL (≈ 0.108 µM)	0.063 µg/mL (≈ 0.108 µM)	>4	>4	0.031 µg/mL (≈ 0.0531 µM)	2	0.063 µg/mL (≈ 0.108 µM)	2	2	0.125 µg/mL (≈ 0.214 µM)	0.125 µg/mL (≈ 0.214 µM)	Ratio (Staphylococcus aureus [4]): 4
C=C[C@]1(C)C[C@@H](OC(=O)CSCCOc2cc(=O)oc3cc(OC)ccc23)[C@]2(C)[C@H](C)CC[C@]3(CCC(=O)[C@H]32)[C@@H](C)[C@@H]1O	0.031 µg/mL (≈ 0.0506 µM)	0.125 µg/mL (≈ 0.204 µM)	>4	0.063 µg/mL (≈ 0.103 µM)	0.063 µg/mL (≈ 0.103 µM)	>4	0.125 µg/mL (≈ 0.204 µM)	0.125 µg/mL (≈ 0.204 µM)	0.25 µg/mL (≈ 0.408 µM)	0.125 µg/mL (≈ 0.204 µM)	0.125 µg/mL (≈ 0.204 µM)	>4	>4	0.063 µg/mL (≈ 0.103 µM)	>1	0.125 µg/mL (≈ 0.204 µM)	2	>4	0.125 µg/mL (≈ 0.204 µM)	0.125 µg/mL (≈ 0.204 µM)	Ratio (Streptococcus pneumoniae [22]): 2; Ratio (Staphylococcus aureus [23]): 4
C=C[C@]1(C)C[C@@H](OC(=O)CSCCOc2cc(=O)oc3ccccc23)[C@]2(C)[C@H](C)CC[C@]3(CCC(=O)[C@H]32)[C@@H](C)[C@@H]1O	0.031 µg/mL (≈ 0.0532 µM)	0.25 µg/mL (≈ 0.429 µM)	2	0.063 µg/mL (≈ 0.108 µM)	0.25 µg/mL (≈ 0.429 µM)	>4	0.125 µg/mL (≈ 0.214 µM)	0.125 µg/mL (≈ 0.214 µM)	0.063 µg/mL (≈ 0.108 µM)	0.25 µg/mL (≈ 0.429 µM)	0.125 µg/mL (≈ 0.214 µM)	>4	>4	0.063 µg/mL (≈ 0.108 µM)	2	0.25 µg/mL (≈ 0.429 µM)	2	>4	0.125 µg/mL (≈ 0.214 µM)	0.125 µg/mL (≈ 0.214 µM)	Ratio (Staphylococcus aureus [4]): 2; Ratio (Staphylococcus aureus [24]): 1
C=C[C@]1(C)C[C@@H](OC(=O)CSc2cc(=O)oc3cc(Cl)ccc23)[C@]2(C)[C@H](C)CC[C@]3(CCC(=O)[C@H]32)[C@@H](C)[C@@H]1O	0.031 µg/mL (≈ 0.0541 µM)	0.063 µg/mL (≈ 0.11 µM)	>4	0.031 µg/mL (≈ 0.0541 µM)	0.125 µg/mL (≈ 0.218 µM)	4	0.031 µg/mL (≈ 0.0541 µM)	0.125 µg/mL (≈ 0.218 µM)	0.125 µg/mL (≈ 0.218 µM)	0.063 µg/mL (≈ 0.11 µM)	0.125 µg/mL (≈ 0.218 µM)	>4	4	0.031 µg/mL (≈ 0.0541 µM)	2	0.25 µg/mL (≈ 0.436 µM)	2	2	0.063 µg/mL (≈ 0.11 µM)	0.063 µg/mL (≈ 0.11 µM)	Ratio (Staphylococcus aureus [4]): >4; Ratio (Staphylococcus aureus [25]): >4; Ratio (Staphylococcus aureus [24]): >4; Ratio (Staphylococcus aureus [23]): >4
C=C[C@]1(C)C[C@@H](OC(=O)CSc2cc(=O)oc3ccccc23)[C@]2(C)[C@H](C)CC[C@]3(CCC(=O)[C@H]32)[C@@H](C)[C@@H]1O	0.016 µg/mL (≈ 0.0297 µM)	0.063 µg/mL (≈ 0.117 µM)	>4	0.031 µg/mL (≈ 0.0575 µM)	0.125 µg/mL (≈ 0.232 µM)	>4	0.031 µg/mL (≈ 0.0575 µM)	0.125 µg/mL (≈ 0.232 µM)	0.25 µg/mL (≈ 0.464 µM)	0.125 µg/mL (≈ 0.232 µM)	0.125 µg/mL (≈ 0.232 µM)	>4	>4	0.031 µg/mL (≈ 0.0575 µM)	2	0.125 µg/mL (≈ 0.232 µM)	4	1	0.031 µg/mL (≈ 0.0575 µM)	0.125 µg/mL (≈ 0.232 µM)	Ratio (Streptococcus pneumoniae [22]): 2; Ratio (Staphylococcus aureus [24]): 2; Ratio (Staphylococcus aureus [23]): 2

Source: ChEMBL document CHEMBL6078666, “Discovery of Novel Coumarin Pleuromutilin Derivatives as Potent Anti-MRSA Agents” (J Med Chem, 2024)
